Experimental data: US8889671B2, “Compounds and methods for treating bacterial infections” (AstraZeneca AB, priority 2013, dated 2014)
≈ marks a conversion by molar mass, not a printed value. Where “and” joins values, the source holds several entries; their conditions need not be identical. Equal values may be shown once. Read-outs that look alike come from different tables or passages of the source.

Assays:
Bacteroides fragilis = experiment: In vitro antibacterial activity of Example 5 against anaerobes (MIC, agar dilution); assay type: cell-based
[1] = tested on: Streptococcus pyogenes ATCC12384; experiment: S. pyogenes neutropenic mouse thigh infection model, PK/PD
B. anthracis = experiment: microbe, parasite or virus in culture; assay type: cell-based, Bacillus anthracis
[2] = tested on: Staphylococcus haemolyticus; experiment: In vitro antibacterial activity of Example 5 (MIC); assay type: cell-based
Staphylococcus aureus = experiment: Emergence of resistance with serial passage; assay type: cell-based; conditions: after twenty passages with Example 5, S. aureus isolates (516 and 2398)
Klebsiella pneumoniae = experiment: Susceptibility testing (MIC) Assay 2, broth microdilution; assay type: cell-based; conditions: clinical isolate, mucoid, read-out: Kpn MIC
Enterobacter cloacae = experiment: In vitro antibacterial activity of Example 5 (MIC); assay type: cell-based
[3] = Plasma pharmacokinetics in S. aureus infected mice; assay type: in vivo, mouse; conditions: intraperitoneal, mice with ABT
Protocol: Groups of satellite mice infected with S. aureus were used for determining plasma concentrations. Dosing started 2 hours after infection and whole blood samples were taken at time points 0.5, 1, 2, 4, 6, 8, 12 and 24 h by submandibular bleed or by cardiac puncture following carbon dioxide asphyxiation and cervical dislocation. Whole blood was sampled into microcontainer tubes containing ethylenediamine tetraacetic acid (EDTA) (Beckton Dickenson). Three mice per time point were used. Plasma was separated by centrifugation for five minutes at 13200 rpm and stored at −20° C. until bioanalysis.
Biological samples containing Example 5 were extracted using protein precipitation. To one volume of sample, 5 volumes of acetonitrile containing the internal standard (Glyburide) were added. […] A Sciex API 4000, controlled by Analyst v1.4.2, was used for the acquisition of the data and the quantification of Example 5.
The plasma profile for each dose group was obtained by calculating the average plasma concentration of compound in each of the three animals per time point. The area under the plasma concentration time curve from zero to infinity (AUC); maximum plasma drug concentration (Cmax); time to reach maximum concentration (tmax); and plasma half-life (t1/2) for each dose group was determined by non-compartmental analysis (WinNonLin 5.2, Pharsight). […]

Enterococcus faecalis = experiment: In vitro antibacterial activity of Example 5 (MIC); assay type: cell-based
[4] = tested on: Bacteroides thetaiotaomicron; experiment: In vitro antibacterial activity of Example 5 against anaerobes (MIC, agar dilution); assay type: cell-based
Propionibacterium acnes = experiment: as above; assay type: cell-based; conditions: Cutibacterium acnes
B. cereus = experiment: microbe, parasite or virus in culture; assay type: cell-based; conditions: Bacillus cereus
Streptococcus pneumoniae = experiment: In vitro antibacterial activity of Example 5 (MIC); assay type: cell-based
Acinetobacter baumannii = experiment: In vitro antibacterial activity of Example 5 (MIC); assay type: cell-based
Serratia marcescens = experiment: In vitro antibacterial activity of Example 5 (MIC); assay type: cell-based
[5] = S. pyogenes ATCC12384, neutropenic mouse thigh

## C[C@@H]1CN2c3c(cc4c(N5C(=O)OC[C@@H]5C)noc4c3F)CC3(C(=O)NC(=O)NC3=O)[C@H]2[C@H](C)O1 [Example 5, (2R,4S,4aS)-11-Fluoro-2,4-dimethyl-8-[(4S)-4-methyl-2-oxo-1,3-oxazolidin-3-yl]-1,2,4,4a-tetrahydro-2′H,6H-spiro[1,4-oxazino[4,3-a][1,2]oxazolo[4,5-g]quinoline-5,5′-pyrimidine]-2′,4′,6′(1′H,3′H)-trione]
Bacteroides fragilis; Bacteroides fragilis (isolates not further specified)
  MIC: 8 µg/mL (≈ 16.4 µM)
Bacteroides fragilis; Bacteroides fragilis, ATCC25285, Bacteroides fragilis (ATCC 25285, CLSI QC Strain), read-out: MIC
  MIC: 2 µg/mL (≈ 4.1 µM)
Bacteroides fragilis; Bacteroides fragilis, Bacteroides fragilis (isolates not further specified), read-out: MIC
  MIC: 4 µg/mL (≈ 8.21 µM)
[1]; S. pyogenes ATC12384 in neutropenic mice
  efficacy in vivo: dose-dependent efficacy
[1]; [5]
  AUC value for 1-log reduction: 76 μg·h/mL
  AUC value for 2-log reduction: 95 μg·h/mL
  AUC value for stasis: 60 µg·h/mL
[1]; S. pyogenes neutropenic dose response
  AUC/MIC (free), EC50 ± SEM (% CV): 151 ± 7 (5%)
B. anthracis; B. anthracis, BSL3 testing
  MIC range: 0.125 to 1 µg/mL
B. anthracis; Bacillus anthracis
  MIC90: 0.5 µg/mL (≈ 1.03 µM)
[2]
  MIC: 0.25 µg/mL (≈ 0.513 µM)
[2]; S. haemolyticus, n=21
  MIC90: 0.25 µg/mL (≈ 0.513 µM)
Staphylococcus aureus
  decrease in susceptibility over the starting culture: 32 fold and 16 fold
Klebsiella pneumoniae
  MIC: > 200 µM
Enterobacter cloacae; Enterobacter cloacae (Chromosomal AmpC)
  MIC: 32 µg/mL (≈ 65.6 µM)
Enterobacter cloacae; Enterobacter cloacae, read-out: MIC
  MIC: 32 µg/mL (≈ 65.6 µM)
[3]
  pharmacokinetics over the dosing range: nonlinear pharmacokinetics
  time of maximum concentration post-administration: 0.5 h
Enterococcus faecalis; E. faecalis, n=51
  MIC range: 0.125 to 2 µg/mL
Enterococcus faecalis; Enterococcus faecalis
  MIC: 2 µg/mL (≈ 4.1 µM)
Enterococcus faecalis; Enterococcus faecalis, ATCC29212, Enterococcus faecalis (ATCC 29212 CLSI QC Strain)
  MIC: 1 µg/mL (≈ 2.05 µM)
Enterococcus faecalis; Enterococcus faecalis, Enterococcus faecalis (Vancomycin-R, fluoroquinolone-R)
  MIC: 0.5 µg/mL (≈ 1.03 µM)
Enterococcus faecalis; Enterococcus faecalis, E. faecalis, n=51
  MIC90: 2 µg/mL (≈ 4.1 µM)
[4]; ATCC29741, Bacteroides thetaiotaomicron (ATCC 29741, CLSI QC Strain)
  MIC: 8 µg/mL (≈ 16.4 µM)
[4]; Bacteroides thetaiotaomicron
  MIC: 8 µg/mL (≈ 16.4 µM)
Propionibacterium acnes
  MIC: 2 µg/mL (≈ 4.1 µM)
B. cereus
  MIC90: 0.5 µg/mL (≈ 1.03 µM)
Streptococcus pneumoniae; Streptococcus pneumonia (Penicillin, -erythromycin- and fluoroquinolone-resistant)
  MIC: 0.25 µg/mL (≈ 0.513 µM)
Streptococcus pneumoniae; Streptococcus pneumoniae, ATCC49619, Streptococcus pneumonia (ATCC 49619, CLSI QC Strain), read-out: MIC
  MIC: 0.25 µg/mL (≈ 0.513 µM)
Streptococcus pneumoniae; Streptococcus pneumoniae, 100 strains of S. pneumoniae
  MIC90: 0.25 µg/mL (≈ 0.513 µM)
Streptococcus pneumoniae; Streptococcus pneumoniae, 100 strains of S. pneumoniae, read-out: MIC50 (MICH [sic])
  MIC50: 0.125 µg/mL (≈ 0.256 µM)
Streptococcus pneumoniae; Streptococcus pneumoniae, Streptococcus pneumonia (In vivo Strain), read-out: MIC
  MIC: 0.25 µg/mL (≈ 0.513 µM)
Acinetobacter baumannii
  MIC: 4 µg/mL (≈ 8.21 µM)
Acinetobacter baumannii; Acinetobacter baumannii (in vivo strain)
  MIC: 4 µg/mL (≈ 8.21 µM)
Acinetobacter baumannii; Acinetobacter baumannii (multi-drug resistant)
  MIC: 16 µg/mL (≈ 32.8 µM)
Serratia marcescens
  MIC: > 64 µg/mL
